Reference: patent US4570000A, “Nitrogen heterocycles” (Imperial Chemical Industries, PLC, priority 1981, dated 1986)

Key:
anaesthetised rats = assay: intravenous toxicity in anaesthetised rats; assay type: in vivo; conditions: two anaesthetised rats, ten times the dose giving approximate 50% inhibition of gastric secretion in the anaesthetised rat
Protocol: (§1) No overt toxicity or side effects were noted during the rat or dog tests. The compound 1-[3-(4-[2-(2,2,2-trifluoroethyl)guanidino]pyrimid-2-yloxy)propyl]imidazole was administered intravenously to groups of two anaesthetised rats and four conscious mice at doses which were respectively ten times and one hundred times the dose, in mg./kg., which produced an approximate 50% inhibition of gastric secretion in the anaesthetised rat.

conscious mice = assay: intravenous toxicity in conscious mice; assay type: in vivo; conditions: four conscious mice, one hundred times the dose giving approximate 50% inhibition of gastric secretion in the anaesthetised rat
Protocol: as §1

## NC(=NCC(F)(F)F)Nc1ccnc(OCCCn2ccnc2)n1 [Example 6, 1-[3-(4-[2-(2,2,2-trifluoroethyl)guanidino]pyrimid-2-yloxy)propyl]imidazole]
Anaesthetised rats
  toxic symptoms: No toxic symptoms
Conscious mice
  toxic symptoms: No toxic symptoms
